In PubChem BioAssay (NCI):
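How tested: cells in 96-well plates exposed to compound for 48 hours at five concentrations. GI50 marks 50% less growth. The concentration for full growth arrest is given as TGI.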

Tests used:
Assay in all cases: inhibition of tumour cell growth, NCI panel, 48 h
BT-549 breast = test system: BT-549 breast
SF-295 CNS = test system: SF-295 CNS
KM12 colon = test system: KM12 colon
HCT-15 colon = test system: HCT-15 colon
HCC-2998 colon = test system: HCC-2998 colon
PC-3 prostate = test system: PC-3 prostate
T-47D breast = test system: T-47D breast
RXF 393 renal = test system: RXF 393 renal
MOLT-4 leukemia = test system: MOLT-4 leukemia
LOX IMVI melanoma = test system: LOX IMVI melanoma
M14 melanoma = test system: M14 melanoma
CCRF-CEM leukemia = test system: CCRF-CEM leukemia
SK-MEL-28 melanoma = test system: SK-MEL-28 melanoma
RPMI-8226 leukemia = test system: RPMI-8226 leukemia
UO-31 renal = test system: UO-31 renal
NCI/ADR-RES ovarian = test system: NCI/ADR-RES ovarian
COLO 205 colon = test system: COLO 205 colon
SF-539 CNS = test system: SF-539 CNS
NCI-H226 lung = test system: NCI-H226 lung
SN12C renal = test system: SN12C renal
HL-60(TB) leukemia = test system: HL-60(TB) leukemia
OVCAR-5 ovarian = test system: OVCAR-5 ovarian
MALME-3M melanoma = test system: MALME-3M melanoma
HT29 colon = test system: HT29 colon
OVCAR-8 ovarian = test system: OVCAR-8 ovarian
SNB-75 CNS = test system: SNB-75 CNS
K-562 leukemia = test system: K-562 leukemia
UACC-62 melanoma = test system: UACC-62 melanoma
MDA-MB-435 = test system: MDA-MB-435
MCF7 breast = test system: MCF7 breast
ACHN renal = test system: ACHN renal
SK-MEL-2 melanoma = test system: SK-MEL-2 melanoma
SK-OV-3 ovarian = test system: SK-OV-3 ovarian
MDA-MB-231 breast = test system: MDA-MB-231 breast
UACC-257 melanoma = test system: UACC-257 melanoma
HOP-62 NSCLC = test system: HOP-62 NSCLC
SNB-19 CNS = test system: SNB-19 CNS
HCT-116 colon = test system: HCT-116 colon
U251 CNS = test system: U251 CNS
A498 renal = test system: A498 renal
DU-145 prostate = test system: DU-145 prostate
786-0 renal = test system: 786-0 renal
SF-268 CNS = test system: SF-268 CNS
TK-10 renal = test system: TK-10 renal
IGROV1 ovarian = test system: IGROV1 ovarian
HS 578T breast = test system: HS 578T breast
NCI-H460 lung = test system: NCI-H460 lung
CAKI-1 renal = test system: CAKI-1 renal
NCI-H522 lung = test system: NCI-H522 lung
SK-MEL-5 melanoma = test system: SK-MEL-5 melanoma
HOP-92 NSCLC = test system: HOP-92 NSCLC
EKVX NSCLC = test system: EKVX NSCLC
A549 NSCLC = test system: A549 NSCLC
SR leukemia = test system: SR leukemia
NCI-H23 lung = test system: NCI-H23 lung
SW-620 colon = test system: SW-620 colon
OVCAR-4 ovarian = test system: OVCAR-4 ovarian

Cn1ccnc1C(=O)/C=C/c1ccc(CNC(=O)c2ccc(S(F)(F)(F)(F)F)cc2)cc1
GI50 (BT-549 breast): 3.49 µM | TGI (BT-549 breast): 7.63 µM | GI50 (SF-295 CNS): 3.6 µM | TGI (SF-295 CNS): 7.15 µM | GI50 (KM12 colon): 2.8 µM | TGI (KM12 colon): 6.02 µM | GI50 (HCT-15 colon): 1.36 µM | TGI (HCT-15 colon): 6.49 µM | GI50 (HCC-2998 colon): 3.7 µM | TGI (HCC-2998 colon): 7.17 µM | GI50 (PC-3 prostate): 3.64 µM | TGI (PC-3 prostate): 10.3 µM | GI50 (T-47D breast): 4.32 µM | TGI (T-47D breast): 18.6 µM | GI50 (RXF 393 renal): 3.53 µM | TGI (RXF 393 renal): 7.41 µM | GI50 (MOLT-4 leukemia): 5.53 µM | TGI (MOLT-4 leukemia): 22.5 µM | GI50 (LOX IMVI melanoma): 1.12 µM | TGI (LOX IMVI melanoma): 4.2 µM | GI50 (M14 melanoma): 4.58 µM | TGI (M14 melanoma): 9.4 µM | GI50 (CCRF-CEM leukemia): 3.25 µM | TGI (CCRF-CEM leukemia): > 25 µM | GI50 (SK-MEL-28 melanoma): 5.2 µM | TGI (SK-MEL-28 melanoma): 11.4 µM | GI50 (RPMI-8226 leukemia): 1.3 µM | TGI (RPMI-8226 leukemia): 8.28 µM | GI50 (UO-31 renal): 3.36 µM | TGI (UO-31 renal): 6.59 µM | GI50 (NCI/ADR-RES ovarian): 5.71 µM | TGI (NCI/ADR-RES ovarian): > 25 µM | GI50 (COLO 205 colon): 4.22 µM | TGI (COLO 205 colon): 9.07 µM | GI50 (SF-539 CNS): 3.37 µM | TGI (SF-539 CNS): 7.04 µM | GI50 (NCI-H226 lung): 5.84 µM | TGI (NCI-H226 lung): > 25 µM | GI50 (SN12C renal): 5.74 µM | TGI (SN12C renal): 18.6 µM | GI50 (HL-60(TB) leukemia): 4.87 µM | TGI (HL-60(TB) leukemia): 17.1 µM | GI50 (OVCAR-5 ovarian): 4.48 µM | TGI (OVCAR-5 ovarian): 11.6 µM | GI50 (MALME-3M melanoma): 4.85 µM | TGI (MALME-3M melanoma): 12 µM | GI50 (HT29 colon): 3.9 µM | TGI (HT29 colon): 8.68 µM | GI50 (OVCAR-8 ovarian): 6.54 µM | TGI (OVCAR-8 ovarian): > 25 µM | GI50 (SNB-75 CNS): 2.12 µM | TGI (SNB-75 CNS): 5.41 µM | GI50 (K-562 leukemia): 1.05 µM | TGI (K-562 leukemia): > 25 µM | GI50 (UACC-62 melanoma): 3.98 µM | TGI (UACC-62 melanoma): 9.1 µM | GI50 (MDA-MB-435): 5.76 µM | TGI (MDA-MB-435): 16.1 µM | GI50 (MCF7 breast): 0.868 µM | TGI (MCF7 breast): 4.79 µM | GI50 (ACHN renal): 4.23 µM | TGI (ACHN renal): 7.74 µM | GI50 (SK-MEL-2 melanoma): 4.24 µM | TGI (SK-MEL-2 melanoma): 9.22 µM | GI50 (SK-OV-3 ovarian): 7.7 µM | TGI (SK-OV-3 ovarian): > 25 µM | GI50 (MDA-MB-231 breast): 5.57 µM | TGI (MDA-MB-231 breast): 18.9 µM | GI50 (UACC-257 melanoma): 5.73 µM | TGI (UACC-257 melanoma): 15.2 µM | GI50 (HOP-62 NSCLC): 4.31 µM | TGI (HOP-62 NSCLC): 9.55 µM | GI50 (SNB-19 CNS): 3.21 µM | TGI (SNB-19 CNS): 7.07 µM | GI50 (HCT-116 colon): 3.17 µM | TGI (HCT-116 colon): 7.36 µM | GI50 (U251 CNS): 1.45 µM | TGI (U251 CNS): 5.33 µM | GI50 (A498 renal): 3.41 µM | TGI (A498 renal): 6.84 µM | GI50 (DU-145 prostate): 3.26 µM | TGI (DU-145 prostate): 6.6 µM | GI50 (786-0 renal): 4.09 µM | TGI (786-0 renal): 8.27 µM | GI50 (SF-268 CNS): 3.44 µM | TGI (SF-268 CNS): 7.52 µM | GI50 (TK-10 renal): 4.38 µM | TGI (TK-10 renal): 9.15 µM | GI50 (IGROV1 ovarian): 3.76 µM | TGI (IGROV1 ovarian): 10.6 µM | GI50 (HS 578T breast): 5.45 µM | TGI (HS 578T breast): 21.4 µM | GI50 (NCI-H460 lung): 3.34 µM | TGI (NCI-H460 lung): 9.53 µM | GI50 (CAKI-1 renal): 3.26 µM | TGI (CAKI-1 renal): 6.9 µM | GI50 (NCI-H522 lung): 4.11 µM | TGI (NCI-H522 lung): 8.23 µM | GI50 (SK-MEL-5 melanoma): 4.57 µM | TGI (SK-MEL-5 melanoma): 8.52 µM | GI50 (HOP-92 NSCLC): 4.38 µM | TGI (HOP-92 NSCLC): 12.1 µM | GI50 (EKVX NSCLC): 4.38 µM | TGI (EKVX NSCLC): 10.3 µM | GI50 (A549 NSCLC): 5.92 µM | TGI (A549 NSCLC): > 25 µM | GI50 (SR leukemia): 0.854 µM | TGI (SR leukemia): > 25 µM | GI50 (NCI-H23 lung): 3.02 µM | TGI (NCI-H23 lung): 7.69 µM | GI50 (SW-620 colon): 1.66 µM | TGI (SW-620 colon): 5.85 µM | GI50 (OVCAR-4 ovarian): 3.64 µM | TGI (OVCAR-4 ovarian): 11.3 µM
